Here are results for 56 molecules from ChEMBL document CHEMBL1201862, “PubChem BioAssay data set” (2004).

Test systems include MDA-N; MDA-MB-231; HOP-18; KM-20L2; DMS-273; DMS-114; XF498; LXFL 529.
Test in all cases: NCI tumour cell line growth inhibition, 48 h

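48-hour exposure; five concentrations; linearly interpolated endpoints. GI50 = concentration required for 50% inhibition of growth.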 The source made the active and inactive calls. Rule as the data show it: active = GI50 up to about 1.1 µM and inactive = higher. A value given as a limit tells only on which side of the number the result lay.

As to `O=C1O/C(=C\c2ccc(O)cc2)C(c2ccc(O)c(Cl)c2)=C1Br`, the GI50 was 8.57 µM (inactive) in the assay with MDA-N and 21.8 µM (inactive) with MDA-MB-231.
Consider `COc1cc(/C=C/C(=O)O)ccc1C(=O)OCc1ccccc1`, for which the GI50 in the assay on HOP-18, in the assay on KM-20L2, with DMS-273, in the assay with DMS-114 and in the assay with XF498 was > 100 µM (inactive) in each case.
Turning to `Cn1c2ccccc2c2ccc3c(c21)C(=O)C(c1ccccc1)=CC3=O`, the GI50 is 0.0957 µM (active) in the assay with HOP-18, 21.5 µM (inactive) in the assay on DMS-273, 16.1 µM (inactive) in the assay on LXFL 529 and 17.9 µM (inactive) in the assay on DMS-114.
Turning to `CN(C)CN1C(=O)/C(=N\n2c(S)nnc2-c2ccncc2)c2ccccc21`, the results for the GI50 in the assay with MDA-N and in the assay with MDA-MB-231 were 16.7 µM (inactive) and > 100 µM (inactive), respectively.
For `Fc1ccc(C(OCCN2CCN(CCCc3ccccc3)CC2)c2ccc(F)cc2)cc1`, in that order: 4.06 µM (inactive) and 3.15 µM (inactive).
For `CC(C)(C)OC(=O)NC(Cc1ccccc1)C(=O)N[C@H]1c2ccsc2/C(=N/O)[C@H]1O` (stereo not given in full), in that order: > 100 µM (inactive) and > 100 µM (inactive).
As for `C/C(=N\NC(=O)c1ccncc1)c1sc(-n2nc(-c3ccccc3)cc2-c2ccccc2)nc1C`, the GI50 with MDA-N is > 100 µM (inactive); in the assay with MDA-MB-231, > 63 µM (inactive).
For `O=C(CCC(=O)OCC1OC(O)(CC2OC(CO)C(O)C(O)C2O)C(O)C1O)OCc1ccccc1` (stereo not given), in that order: > 100 µM (inactive) and > 100 µM (inactive).
As for `O=c1sc(Nc2ccc3ccccc3c2Cl)nc2ccccc12`, in the assay with MDA-MB-231, the GI50 was > 100 µM (inactive).
For `Cc1ccc2nc(NC(=O)/C(Cc3nc4ccc(Cl)cc4nc3O)=N\NC(C)(C)C)sc2c1`, the GI50 in the assay on MDA-N and in the assay on MDA-MB-231 was > 100 µM (inactive) each time.
Regarding `COC(=O)C1OC2(CCCC3CC32)O[C@H]1C(=O)OC` (stereo not given in full), the GI50 in the assay on MDA-N and in the assay on MDA-MB-231 was > 100 µM (inactive) in each case.
With `CCOC(=O)/C=C(\C(=O)OCC)n1ccc(=O)n(Cc2cnnn2CCCCOC(C)=O)c1=O`, the GI50 was 22.5 µM (inactive) in the assay with MDA-N and 15.2 µM (inactive) in the assay on MDA-MB-231.
On to `COc1ccc2c(c1)[n+]([O-])c(-c1cccc(Cl)c1)c(N)[n+]2[O-]`, for which the GI50 in the assay on HOP-18 was > 100 µM (inactive); in the assay on KM-20L2 it was 37.8 µM (inactive); in the assay with DMS-273 it was 33.6 µM (inactive); in the assay with DMS-114, 23.1 µM (inactive); with XF498, > 100 µM (inactive).
`COC(=O)c1cc2c3c(cc(N(C)C)c2[nH]1)N(C(=O)c1cc2cc(OC)c(OC)c(OC)c2[nH]1)CC3CCl` (stereo not given): the GI50 with MDA-N was 0.00427 µM (active); with MDA-MB-231, 0.00419 µM (active).
As for `OCC1=C[C@@](COCc2ccccc2)(OCc2ccccc2)[C@@H](OCc2ccccc2)[C@@H]1OCc1ccccc1`, the GI50 is 17.2 µM (inactive) in the assay with MDA-N and 9.08 µM (inactive) with MDA-MB-231.
For `CC1CCC2C(C(=O)O[C@H]3C4CCO[C@@H](OC5OC(CO)C(O)C(O)C5O)C4[C@@]4(CO)O[C@@H]34)=CO[C@@H](OC3OC(CO)C(O)C(O)C3O)C12` (stereo not given in full), in that order: > 10 µM (inactive) and > 10 µM (inactive).
`COC(C(O)c1ccc2c(c1)OCO2)P(=O)(c1ccccc1)c1ccccc1` (stereo not given): the figures for the GI50 in the assay on DMS-273, in the assay with DMS-114 and in the assay with XF498 were > 100 µM (inactive), 77.3 µM (inactive) and > 100 µM (inactive), respectively.
Take `Nc1cc(O)c2cc(/N=N/c3ccc(/N=N/c4ccc(/N=N/c5ccc6cc(S(=O)(=O)O)cc(S(=O)(=O)O)c6c5)c5ccccc45)c4cc(S(=O)(=O)O)ccc34)c(S(=O)(=O)O)cc2c1`: the GI50 in the assay on HOP-18 is > 100 µM (inactive); with KM-20L2, > 10 µM (inactive); in the assay with DMS-273 it was 97.1 µM (inactive); in the assay with XF498, > 100 µM (inactive).
As for `CCCCNC(=O)OCCN=C1c2ccccc2C(Br)C(Br)c2ccccc21` (stereo not given), the GI50 is 15.2 µM (inactive) in the assay with MDA-N and 29.4 µM (inactive) in the assay with MDA-MB-231.
With `CO[C@H]1c2cccc3cccc(c23)[C@@H]1n1[nH]c(=O)n(C(C)(C)C)c1=O`, the GI50 in the assay with MDA-N and with MDA-MB-231 was > 100 µM (inactive) throughout.
For `O=C(Nc1ccn(C2CC(O)C(COC(c3ccccc3)(c3ccccc3)c3ccccc3)O2)c(=O)n1)c1ccccc1` (stereo not given), the GI50 with MDA-N was 1.96 µM (inactive); in the assay on MDA-MB-231, 3.05 µM (inactive).
Turning to `COc1ccc(/C=C(\C2=NC(=O)CS2)c2nc3ccccc3[nH]2)cc1`, the GI50 was 49 µM (inactive) with KM-20L2; > 100 µM (inactive) with DMS-273; 60.7 µM (inactive) with LXFL 529; 19.5 µM (inactive) in the assay on DMS-114; 14.5 µM (inactive) with XF498.
As to `CCN(CC)CCNC(=O)c1cc2cc(NC(=O)c3cc4cc(NC(=O)c5cc6cc(N)ccc6[nH]5)ccc4[nH]3)ccc2[nH]1`, the GI50 in the assay with MDA-N and in the assay on MDA-MB-231 was > 100 µM (inactive) each time.
Regarding `COc1cc(C2c3cc4c(cc3[C@@H](Oc3ccc(F)cc3)C3COC(=O)[C@H]23)OCO4)cc(OC)c1O` (stereo not given in full), the values for the GI50 in the assay with HOP-18, with KM-20L2 and in the assay with DMS-273 were 87.1 µM (inactive), 0.286 µM (active) and 0.337 µM (active), respectively.
Consider `CCOC(=O)C(NC(=O)c1cccc(Cl)c1)(Nc1ccc(S(=O)(=O)Nc2cc(C)on2)cc1)C(F)(F)F` (stereo not given), for which the GI50 in the assay with MDA-N and in the assay on MDA-MB-231 was > 100 µM (inactive) throughout.
In the case of `CC1C(/C=C/c2ccoc2)ON2CCCC12` (stereo not given), the GI50 in the assay on HOP-18, in the assay on KM-20L2, with DMS-273 and with LXFL 529 was > 100 µM (inactive) each time.
Take `O=c1cnnc2sc(=S)[nH]n12`: the GI50 with MDA-N was 36.2 µM (inactive).
In the case of `CC(C)=CC(O)C(C(O)CCC1(C)OCCO1)S(=O)(=O)c1ccccc1` (stereo not given), the GI50 with MDA-N and with MDA-MB-231 was > 100 µM (inactive) in each case.
As for `Cc1ccc(/C=C2\Cc3c(C)cc(C)cc3C2=O)c(C(=O)O)c1`, the GI50 in the assay with MDA-N was 89.3 µM (inactive).
For the molecule `COc1ccc(/C=C2/SC(c3ccccc3)N(NC(=O)CCCCCCCCC(=O)NN3C(=O)/C(=C\c4ccc(OC)c(OC)c4)SC3c3ccccc3)C2=O)cc1OC` (stereo not given), the GI50 is 35.2 µM (inactive) in the assay with MDA-N and 74.6 µM (inactive) in the assay on MDA-MB-231.
For `O=C1OC(=O)c2c1cc1cc3c(cc1c2-c1ccc2c(c1)OCO2)OCO3`, in that order: > 100 µM (inactive) and > 100 µM (inactive).
As for `COc1cc(/C=C/C(=O)CC(=O)/C=C/c2ccc(O)c(OC)c2)ccc1O` [CURCUMIN], in the assay with MDA-MB-231, the GI50 was 17.8 µM (inactive).
In the case of `Fc1cccc(C2ON=C(c3ccccc3)N2C23CC4CC(CC(C4)C2)C3)c1` (stereo not given), the GI50 in the assay with MDA-N and with MDA-MB-231 was > 10 µM (inactive) each time.
As to `COc1cccc(C(=O)C#Cc2cnc(OC)nc2OC)c1`, the GI50 is 1.49 µM (inactive) in the assay on MDA-N and 3.41 µM (inactive) with MDA-MB-231.
For `COC(=O)C1(OC(=O)Sc2ccccc2)CCN(C)CC1`, in that order: 17.8 µM (inactive) and 16.9 µM (inactive).
Take `CCCCCCCCCCCCOCCOCCOCCOCCOCCOCC(=O)NC(Cc1ccccc1)C(=O)Oc1ccc([N+](=O)[O-])cc1` (stereo not given): the GI50 in the assay on MDA-N was 27.7 µM (inactive); with MDA-MB-231, 60.3 µM (inactive).
For `C[C@]12CCC(=O)C=C1CC[C@@H]1[C@@H]2[C@@H](O)C[C@@]2(C)[C@H]1CC[C@]2(O)C(=O)COC(=O)C1CCCC1`, in that order: > 100 µM (inactive) and > 100 µM (inactive).
For `CCCCCCCCCCCCCCCCP(=O)([O-])OCC[N+](C)(C)C`, in that order: 15.4 µM (inactive) and 20.5 µM (inactive).
For `CC(C)(C)OC(=O)NC(CSSCC(NC(=O)OC(C)(C)C)C(=O)O)C(=O)O` (stereo not given), in that order: > 100 µM (inactive) and > 100 µM (inactive).
For `CC(C)C(=O)Nc1cc(C(F)(F)F)ccc1[N+](=O)[O-]`, the GI50 in the assay with MDA-N and in the assay on MDA-MB-231 was > 100 µM (inactive) in each case.
On to `CC(=O)c1cc2sc3ccccc3c2[nH]1`, for which the GI50 in the assay with MDA-N and in the assay with MDA-MB-231 was > 100 µM (inactive) throughout.
Regarding `COC(=O)[C@]1(C)CCCn2c(=O)n(-c3ccccc3)c(=O)n21`, the GI50 in the assay on MDA-MB-231 is > 100 µM (inactive).
Regarding `OCC1COc2cc(Cl)c(Cl)cc2O1` (stereo not given), the GI50 in the assay with MDA-N and in the assay on MDA-MB-231 was > 10 µM (inactive) in each case.
Turning to `CN1c2ccccc2N(C(=O)c2ccc([N+](=O)[O-])cc2)C(CC(=O)O)c2cccn21` (stereo not given), the GI50 in the assay with KM-20L2, in the assay with DMS-273, in the assay on LXFL 529, in the assay on DMS-114 and with XF498 was > 100 µM (inactive) throughout.
As to `C=C1CC[C@](C)(O)[C@@]2(C)CC[C@H]3C(=C(C)C)C(=O)C[C@]3(C)C[C@H]12`, the GI50 in the assay on MDA-MB-231 was > 50 µM (inactive).
In the case of `CN(C)CCNC(=O)c1cccc2cc3cc(O)ccc3nc12`, the GI50 in the assay with HOP-18 is 1.32 µM (inactive); in the assay with KM-20L2, 2.44 µM (inactive); in the assay on DMS-273, 0.662 µM (active); in the assay with DMS-114, 1.37 µM (inactive); with XF498, 0.916 µM (active).
`Cc1cc(C)c(S(=O)(=O)N(CCCCCCN)OCCCN)c(C)c1`: the GI50 is 17.5 µM (inactive) with MDA-N and 10.7 µM (inactive) in the assay with MDA-MB-231.
For `S=C(N/N=C/c1ccccn1)N1CCCCCC1`, in that order: 0.0773 µM (active) and < 0.01 µM (active).
For `Cc1ncc2c(n1)CCC1=C2OS(=O)(=O)CC1N(C)C` (stereo not given), in that order: > 100 µM (inactive) and > 100 µM (inactive).
On to `N#CC(=S)Nc1ccc(F)cc1`, for which the results for the GI50 with MDA-N and in the assay on MDA-MB-231 were 52.1 µM (inactive) and > 100 µM (inactive), respectively.
Regarding `COC(=O)c1s/c(=N\C(=S)N(C)C)n(-c2ccccc2)c1C(=O)OC`, the GI50 with KM-20L2 was > 100 µM (inactive); in the assay with DMS-273, > 100 µM (inactive); in the assay on DMS-114, 70 µM (inactive).
Take `O=C1c2cccc3cccc(c23)C(=O)N1O`: the GI50 in the assay with MDA-N is 91.6 µM (inactive); in the assay on MDA-MB-231 it was > 100 µM (inactive).
For `O=C(NNC(=O)c1ccccc1O)c1ccc(O)cc1`, in that order: > 100 µM (inactive) and 10.2 µM (inactive).
For `COC(CC1(/C=C/O[Si](C(C)C)(C(C)C)C(C)C)C(=O)N(COCC[Si](C)(C)C)c2ccccc21)OC` (stereo not given), in that order: 24.9 µM (inactive) and 21.1 µM (inactive).
Regarding `Nc1nc(Cl)cc(NCC2(CO)CC(c3ccccc3)C2)n1` (stereo not given), the GI50 with MDA-N is 31 µM (inactive); in the assay with MDA-MB-231 it was 26.4 µM (inactive).
For `CCOc1cc(C=O)ccc1O` [ETHYL VANILLIN], in that order: > 100 µM (inactive) and > 100 µM (inactive).
